# Patent publication US8518373B2, “Ionic and non-ionic radiographic contrast agents for use in combined X-ray and nuclear magnetic resonance diagnostics” (priority 2001, dated 2013)
# Like-named read-outs stand apart in the source and are kept apart here.
# Assays:
# [1] = cited from earlier work
# [2] = cited from earlier work; remark: listed apart in the source
# [3] = rabbit, in vivo, cited from earlier work
# [4] = residual water signal after irradiating the amido protons, effect of radiofrequency field intensity, 200 mM Iopamidol; conditions: for % residual signal: 200 mM, pH 6.29, 2.1 T, 39° C., rf field at 9.4 ppm
# Experimental: A 200 Mm Iopamidol solution at pH=6.29 was investigated at 2.1 T magnetic field intensity and at a temperature of 39° C. (JEOL EX-90 spectrometer). Considering 100 the area of the water signal with irradiation at −9.4 ppm, its decrease (expressed as % residual signal) was evaluated in the presence of a rf field tuned at 9.4 ppm (signal of the amido protons).
# [5] = residual water signal after irradiating the amido proton signal, effect of temperature, 200 mM Iopamidol; conditions: pH 6.74, 2.1 T, irradiation at 9.4 ppm, attenuation 300 dB
# Experimental: A 200 mM Iopamidol solution at pH=6.74 was investigated at 2.1 T magnetic field intensity (JEOL EX-90 spectrometer). After irradiating the amido proton signal at 9.4 ppm, with attenuation of 300 dB, the area under the water signal was measured. Considering 100 the area of the water signal with irradiation at −9.4 ppm, a drastic reduction is observed following irradiation of the amido protons. The effect increases as temperature increase so that: […]
# [6] = dog, in vivo; cited from earlier work
# [7] = Z-spectra and Saturation transfer (ST) profiles of aqueous solutions in MT imaging; conditions: 7 T, pH 7.4, 312 K, 30 mM (Gd-DTPA 1 mM)
# Experimental: The Magnetization Transfer or, more precisely, the amount of saturation transfer (ST) registered in a MT based MRI procedure following irradiation of the mobile proton(s), is conveniently quantified as ST % according to the following equation (2) ST %=100×(1−Ms/M0) (2)
# In a first series, tests were conducted at physiological pH and temperature. A second series of tests were conducted at acidic pH.
# In the first series of tests, Z-spectra and corresponding Saturation transfer (ST) profiles were measured at 7 T, pH 7.4 and 312 K, for aqueous solutions of iopamidol (30 mM), L-amino acids alanine, glutamine and lysine (each 30 mM), Gd-DTPA (1 mM) and Iopamidol (30 mM).
compound,measurement,setting,value
O=C1NCCN1 [2-Imidazolidinone],LD50 intraperitoneal mouse,"[1]; intraperitoneal, mouse",500 mg/kg
O=C1CC(=O)NC(=O)N1 [Barbituric Acid],LD50 orally in male rats,"[2]; oral, male rats",> 5000 mg/kg
N=C(N)N [Guanidine],LD orally in rabbits,[3]; po,500 mg/kg
C[C@H](O)C(=O)Nc1c(I)c(C(=O)NC(CO)CO)c(I)c(C(=O)NC(CO)CO)c1I [Iopamidol],reduction of the signal from water in MRI saturation transfer,[4]; 2.1 T magnetic field,80%
same,% residual signal,[4]; attenuation 300 dB,15%
same,% residual signal,[4]; attenuation 400 dB,40%
same,LD50 in mice,"[1]; mouse, in vivo",44.5 g/kg
same,LD50 in rats,"[2]; rat, in vivo",28.2 g/kg
same,% residual signal,[5]; 15° C.,39%
same,% residual signal,[5]; 25° C.,30%
same,% residual signal,[5]; 39° C.,24%
same,LD50 in dogs,[6],34700 mg/kg
same,LD50 in rabbits,[3],19600 mg/kg
N=C(N)NCCC[C@H](N)C(=O)O [L-Arginine],LD50 intravenous mouse,"[1]; mouse, in vivo, iv",2030 mg/kg
C[C@H](N)C(=O)O [L-alanine],Saturation Transfer Value pH = 7.4,[7],0
same,Saturation Transfer Value pH = 7.4,[7]; listed as alanine,failed to provide any detectable signals
NCCCC[C@H](N)C(=O)O [L-lysine],Saturation Transfer Value pH = 7.4,[7],0
same,Saturation Transfer Value pH = 7.4,[7]; listed as lysine,failed to provide any detectable signals
CC(=O)Nc1c(I)c(C(=O)N[C@H]2C(O)O[C@H](CO)[C@@H](O)[C@@H]2O)c(I)c(N(C)C(C)=O)c1I (stereo partly drawn) [Metrizamide],LD50 i.v. in mice,"[1]; i.v., mice (Aspelin)",17300 mg/kg
same,LD50 i.v. in mice,"[1]; i.v., mice (Salvenson)",18600 mg/kg
same,LD50 i.v. in mice,"[1]; i.v., mice (Sovak)",11500 mg/kg
same,LD50 i.v. in mice,"[1]; i.v., mice (Torsten)",15000 mg/kg
O=C(O)C1CCCCN1 (stereo not drawn) [Pipecolinic. Acid],LD50 intravenous mouse,"[1]; intravenous, mouse",2200 mg/kg
CC(=O)Nc1c(I)c(NC(C)=O)c(I)c(C(=O)[O-])c1I.[Na+] [Sodium diatrizoate],LD50 i.v. in rats,"[2]; i.v., rats (Langecker)",14700 mg/kg
Cc1cn([C@H]2C[C@H](O)[C@@H](CO)O2)c(=O)[nH]c1=O [Thymidine],LD50 intraperitoneal mouse,"[1]; mouse, in vivo, ip",2512 mg/kg
Iopromide,LD50 in mice,"[1]; mice, i.v.",16.5 g iodine/kg body weight
same,LD50 in rats,"[2]; rats, i.v.",11.4 g iodine/kg body weight
